Test results published in patent US4206120A, “Oxaazabicycloheptane antibiotics” (Beecham Group Limited, priority 1976, dated 1980).

Experiments:
[1] = test system: mice; assay: Acute toxicity in mice, subcutaneous; format: in vivo
[2] = test system: Klebsiella aerogenes E70; assay: Effect on MIC of ampicillin against β-lactamase producing bacteria, Klebsiella E 70; format: cell-based; conditions: ampicillin alone
Protocol: (§1) a. Compounds of this invention were tested by conventional methods to determine their effect on the MIC (minimum inhibitory concentration) values of ampicillin against certain β-lactamase producing bacteria. The results for the compounds of the formula [drawing 124] were as follows: […]

[3] = test system: Staphylococcus aureus Russell; assay: Effect on MIC of ampicillin against β-lactamase producing bacteria, Staphylococcus aureus Russell; format: cell-based; conditions: ampicillin alone, Staph. aureus Russell
Protocol: as §1

[4] = target: Lactamase, Proteus mirabilis C889; assay: Lactamase inhibition, enzyme from Proteus mirabilis C889; format: biochemical; conditions: source of enzyme Proteus mirabilis C889
[5] = target: T1, Lactamase, Staph. aureus Russell (Staphylococcus aureus, UniProt P00807); assay: Lactamase inhibition, enzyme from Staph. aureus Russell; format: biochemical; conditions: source of enzyme Staph. aureus Russell; read-out: Lactamase inhibition I50 (converted)
T1 construct: Source of; endogenous in cells; host or cells: Staphylococcus aureus strain Russell
T1 sequence (P00807 25-281): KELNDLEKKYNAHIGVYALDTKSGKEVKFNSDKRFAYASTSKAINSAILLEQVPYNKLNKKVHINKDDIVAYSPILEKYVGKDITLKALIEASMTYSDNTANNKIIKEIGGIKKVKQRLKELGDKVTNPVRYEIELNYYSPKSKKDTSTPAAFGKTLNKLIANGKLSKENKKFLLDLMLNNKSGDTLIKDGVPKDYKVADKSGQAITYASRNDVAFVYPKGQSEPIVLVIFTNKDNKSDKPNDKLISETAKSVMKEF

[6] = target: Lactamase, Kleb. aerogenes E70; assay: Lactamase inhibition, enzyme from Kleb. aerogenes E70; format: biochemical; conditions: source of enzyme Kleb. aerogenes E70
[7] = target: T2, Lactamase, Pseudomonas aerogenosa Dalgleish (Pseudomonas aeruginosa, UniProt P16897); assay: Lactamase inhibition, enzyme from Pseudomonas aerogenosa Dalgleish; format: biochemical; conditions: source of enzyme Pseudomonas aerogenosa Dalgleish; read-out: Lactamase inhibition I50 (converted)
T2 construct: Source of; endogenous in cells; host or cells: Pseudomonas aeruginosa strain Dalgleish
T2 sequence (P16897 18-288): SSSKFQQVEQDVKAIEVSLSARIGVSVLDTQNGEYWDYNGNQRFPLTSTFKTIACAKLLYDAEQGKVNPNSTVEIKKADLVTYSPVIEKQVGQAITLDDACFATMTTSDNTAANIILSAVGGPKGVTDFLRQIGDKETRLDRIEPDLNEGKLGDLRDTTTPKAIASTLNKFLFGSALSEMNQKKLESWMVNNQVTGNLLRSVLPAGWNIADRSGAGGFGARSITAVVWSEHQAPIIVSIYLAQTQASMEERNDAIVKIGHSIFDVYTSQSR

[8] = target: T3, Lactamase, E. coli JT 4 (Escherichia coli, UniProt P62593); assay: Lactamase inhibition, enzyme from E. coli JT 4; format: biochemical; conditions: source of enzyme E. coli JT 4; read-out: Lactamase inhibition I50 (converted)
T3 construct: Source of; endogenous in cells; host or cells: Escherichia coli strain JT 4
T3 sequence (P62593 24-286 limits assumed): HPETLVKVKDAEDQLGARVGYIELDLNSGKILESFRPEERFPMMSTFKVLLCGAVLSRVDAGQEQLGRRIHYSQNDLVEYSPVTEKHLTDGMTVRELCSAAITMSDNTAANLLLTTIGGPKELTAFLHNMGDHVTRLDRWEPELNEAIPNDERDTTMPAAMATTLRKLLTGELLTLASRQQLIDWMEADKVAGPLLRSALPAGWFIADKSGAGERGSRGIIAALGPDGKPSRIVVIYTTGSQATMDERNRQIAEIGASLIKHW

[9] = target: T4, Lactamase, Enterobacter P99 (Enterobacter cloacae, UniProt P05364); assay: Lactamase inhibition, enzyme from Enterobacter P99; format: biochemical; conditions: source of enzyme Enterobacter P99; read-out: Lactamase inhibition I50 (converted)
T4 construct: Source of; endogenous in cells; host or cells: Enterobacter (cloacae) strain P99
T4 sequence (P05364 21-381): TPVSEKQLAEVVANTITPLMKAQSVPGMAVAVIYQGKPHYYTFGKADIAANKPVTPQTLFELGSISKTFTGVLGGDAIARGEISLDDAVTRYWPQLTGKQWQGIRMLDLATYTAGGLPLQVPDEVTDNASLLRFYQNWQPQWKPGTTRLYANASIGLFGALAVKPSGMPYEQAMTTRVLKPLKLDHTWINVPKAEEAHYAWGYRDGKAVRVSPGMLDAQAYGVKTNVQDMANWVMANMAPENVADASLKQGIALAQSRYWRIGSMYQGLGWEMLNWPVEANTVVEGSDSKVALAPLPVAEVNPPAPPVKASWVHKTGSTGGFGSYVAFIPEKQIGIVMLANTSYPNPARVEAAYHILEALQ

O=C(O)/C(=C1\CN2C(=O)CC2O1)c1ccccc1 (stereo not shown) [Z1=H, Z2=CO2 Na, Z3=C6 H5, Sodium (E)-7-oxo-4-oxa-1-azabicyclo[3.2.0]heptane-3-(benzylidene-1-carboxylate)]
deaths in a group of mice ([1]; subcutaneously at 250 mg/kg): did not cause any deaths

O=C(O)[C@H]1/C(=C/c2ccccc2)O[C@@H]2CC(=O)N21 (relative stereo) [Z1=CO2 Na, Z2=H, Z3=C6 H5, Sodium (Z)-(2RS,5RS)-(3-benzylidene)-7-oxo-4-oxa-1-azabicyclo[3,2,0]-heptane-2-carboxylate]
deaths in a group of mice ([1]; subcutaneously at 1000 mg/kg): did not cause any deaths

CC1(C)S[C@@H]2[C@H](NC(=O)[C@H](N)c3ccccc3)C(=O)N2[C@H]1C(=O)O [ampicillin]
MIC [2]: > 2000 mg/L | MIC [3]: 250 mg/L

C[C@@H](NC(=O)/C=C1\CN2C(=O)C[C@H]2O1)c1ccccc1 [Example 5-R-epimer, (E)-5-R-3-[N-(R-1-Phenylethyl)carbamoylmethylene]-4-oxa-1-azabicyclo [3.2.0]heptan-7-one]
Lactamase inhibition I50 [4]: 0.6 µg/mL | IC50 [5]: 0.918 µM | Lactamase inhibition I50 [6]: 2.4 µg/mL | IC50 [7]: 2.39 µM | IC50 [8]: 1.47 µM | IC50 [9]: 1.47 µM

C[C@@H](NC(=O)/C=C1\CN2C(=O)C[C@@H]2O1)c1ccccc1 [Example 5-S-epimer, (E)-5-S-[N-(R-1-Phenylethyl)carbamoylmethylene]-4-oxa-1-azabicyclo[3.2.0]heptan-7-one]
Lactamase inhibition I50 [4]: 8.8 µg/mL | IC50 [5]: 47.7 µM | Lactamase inhibition I50 [6]: > 40 µg/mL | IC50 [7]: 64.6 µM | IC50 [8]: 21.3 µM | IC50 [9]: 4.41 µM
